Laboratory results reported in US8629168B2, “Benzoxazoles and oxazolopyridines being useful as janus kinases inhibitors” (priority 2006, dated 2014).

Experiments:
[1] = target: T1, GST-JAK2 (Homo sapiens, UniProt O60674); test: JAK2 kinase assay of the general description (alternative method, flash plate); format: biochemical; details: 1.0 μM ATP, read-out: IC50 with test in general description (named “alternative method to that given in the examples”) (“flash plate”)
T1 construct: the amino acid domain ASP751-VAL1129 of the JAK2 protein
T1 sequence (O60674 751-1129): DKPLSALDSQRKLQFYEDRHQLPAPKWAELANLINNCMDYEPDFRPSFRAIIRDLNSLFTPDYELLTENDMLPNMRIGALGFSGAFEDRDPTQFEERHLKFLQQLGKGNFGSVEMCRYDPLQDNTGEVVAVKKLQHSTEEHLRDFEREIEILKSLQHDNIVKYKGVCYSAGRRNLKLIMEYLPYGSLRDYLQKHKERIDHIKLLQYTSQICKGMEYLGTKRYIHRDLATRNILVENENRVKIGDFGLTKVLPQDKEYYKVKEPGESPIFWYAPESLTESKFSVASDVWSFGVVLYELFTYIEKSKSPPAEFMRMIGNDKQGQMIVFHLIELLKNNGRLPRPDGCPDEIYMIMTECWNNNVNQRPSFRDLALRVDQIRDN
Procedure: Baculovirus including the amino acid domain ASP751-VAL1129 of the JAK2 protein is obtainable by ProQinase, Freiburg, Germany. The virus is scaled up as following: Virus containing media is collected from the transfected cell culture and used for infection to increase its titer. Virus containing media obtained after two rounds of infection is used for large-scale protein expression. For large-scale protein expression 100 cm^2 round tissue culture plates are seeded with 5×10^7 cells/plate and infected with 1 mL of virus-containing media (approx. 5 MOIs). After 3 days the cells are scraped off the plate and centrifuged at 500 rpm for 5 min. Cell pellets from 10-20, 100 cm^2 plates, are re-suspended in 50 mL of ice-cold lysis buffer (25 mMTris-HCl, pH7.5, 2 mMEDTA, 1% NP-40, 1 mM DTT, 1 mMP MSF). The cells are stirred on ice for 15 min and then centrifuged at 5000 rpms for 20 min. The protein is purified by loading the centrifuged cell lysate onto a 2 mL glutathione-sepharose column and washed three times with 10 mL of 25 mM Tris-HCl, pH 7.5, 2 mM EDTA, 1 mM DTT, 200 mM NaCl. The GST-tagged proteins are then eluted by 10 applications (1 mL each) of 25 mM Tris-HCl, pH 7.5, 10 mM reduced-glutathione, 100 mM NaCl, 1 mM DTT, 10% Glycerol and stored at −70° C.
Cancer Cell; 5: 231-239]. The test compound is dissolved in DMSO (10 mM) and stored at −20° C. Serial dilutions are freshly made in DMSO and are […] concentrated than test solutions (“pre-dilution plates”). They are further diluted with pure water to yield “master plates” containing 3 times concentrated test solutions in 3% DMSO. The final volume of the assay is 30 μL containing 10 μL of test solution (1% DMSO), 10 μL assay mix including the assay components described by Garcia-Echeverria (2004) and in the following section as well as 10 μL enzyme. The pipetting steps can be programmed to be performed either on the MultiPROBE Iix, MultiPROBE IILx or HamiltonSTAR robots in the 96 well format.
The protein kinase assays are carried as described in details by Garcia-Echeverria (see above). The assay for JAK2 is carried out in 96-well plates at ambient temperature for 10 min (filter-biding method) or 30 min (flash plates) in a finial volume of 30 μL including the following components: 300 ng of GST-JAK2, 20 mM Tris-HCl, pH 7.5, 1.0 mM MnCl2, 10 mM MgCl2, 1 mM DTT, 3 μg/mL poly(Glu, Tyr) 4:1, 1% DMSO and 1.0 μM ATP (γ-[^33P]-ATP 0.1 μCi); The assays are terminated by the addition of 20 μl of 125 mM EDTA. The capturing of the phosphorylated peptides by the filter-binding method is performed as following: 40 μL of the reaction mixture are transferred onto Immobilon-PVDF membranes previously soaked for 5 min with methanol, rinsed with water, then soaked for 5 min with 0.5% H3PO4 and mounted on vacuum manifold with disconnected vacuum source. After spotting all samples, vacuum is connected and each well rinsed with 200 μl 0.5% H3PO4. Free membranes are removed and washed 4× on a shaker with 1.0% H3PO4, once with ethanol. Membranes are counted after drying at ambient temperature, mounting in Packard TopCount 96-well frame, and addition of 10 μl/well of Microscint. The plates are eventually sealed and counted in a microplate scintillation counter (TopCount NXT, TopCount NXT HTS, PerkinElmer, Brussels, Belgium).
The assays for the flash plate method is carried out in a total volume of 30 μL at RT in conventional 96-well flash plates. The reaction is stopped after 30 min by the addition of 20 μL of 125 mM EDTA The assay plates are then washed three times with PBS and dried at room temperature. The plates are sealed and counted in a microplate scintillation counter (TopCount NXT, TopCount NXT HTS). IC50 values are calculated by linear regression analysis of the percentage inhibition of the compound either in duplicate, at four concentrations (usually 0.01, 0.1, 1 and 10 μM) or as 8 single point IC50 starting at 10 μM following by 1:3 dilutions.

[2] = target: T2, GST-JAK2(808-1132) (Homo sapiens, UniProt O60674); test: EPK JAK/TYK-kinase family profiling assay (Caliper mobility shift), JAK2; format: biochemical; details: Caliper mobility shift assay of Example 187, 20 μM ATP, read-out: IC50 with Test in present Example
T2 construct: GST-JAK2(808-1132) is purchased from Invitrogen; purchased Invitrogen (Carlsbad, USA) #4288
T2 sequence (O60674 808-1132): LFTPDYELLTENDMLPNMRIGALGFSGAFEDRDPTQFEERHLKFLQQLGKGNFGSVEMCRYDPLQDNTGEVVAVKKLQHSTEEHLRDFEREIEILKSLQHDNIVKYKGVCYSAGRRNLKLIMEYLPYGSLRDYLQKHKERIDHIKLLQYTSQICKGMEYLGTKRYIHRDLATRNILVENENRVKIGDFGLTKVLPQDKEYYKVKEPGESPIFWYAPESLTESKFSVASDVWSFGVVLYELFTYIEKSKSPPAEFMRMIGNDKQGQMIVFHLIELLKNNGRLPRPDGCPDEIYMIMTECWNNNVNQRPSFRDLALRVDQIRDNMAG
Summary of the method: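 Caliper mobility-shift assay with the GST-tagged kinase domain and a fluorescently labeled peptide substrate plus ATP, run 60 min at 30° C and then stopped with EDTA buffer. Turnover was taken as the substrate/product ratio. Compounds were tested at eight final concentrations from 10 to 0.003 μM.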

| Compound | IC50 [1] [µM] | IC50 [2] [µM] |
| --- | --- | --- |
| COc1cc(Nc2nc3cccc(-c4ccc(CNC(C)=O)cc4)c3o2)cc(OC)c1OC [Example 30, N-{4-[2-(3,4,5-Trimethoxy-phenylamino)-benzooxazol-7-yl]-benzyl}-acetamide] | 0.041 | 0.021 |
| CNS(=O)(=O)c1ccc(-c2cccc3nc(Nc4ccc(OC)cc4)oc23)cc1 [Example 139, 4-[2-(4-Methoxy-phenylamino)-benzooxazol-7-yl]-N-methyl-benzenesulfonamide] | 0.4 | 0.12 |
| COc1ccc(Nc2nc3cccc(-c4ccc(S(N)(=O)=O)cc4)c3o2)cc1OC [Example 58, 4-[2-(3,4-Dimethoxy-phenylamino)-benzooxazol-7-yl]-benzenesulfonamide] | 0.0415 | 0.037 |
| Nc1cccc(-c2cccc3nc(Nc4ccc(N5CCOCC5)cc4)oc23)c1 [Example 43, [7-(3-Amino-phenyl)-benzooxazol-2-yl]-(4-morpholin-4-yl-phenyl)-amine] | 1.9 | – |
| COc1cc(Nc2nc3cccc(-c4ccc(NS(C)(=O)=O)cc4)c3o2)cc(OC)c1OC [Example 26, N-{4-[2-(3,4,5-Trimethoxy-phenylamino)-benzooxazol-7-yl]-phenyl}-methanesulfonamide] | 0.052 | – |
| COc1cc(Nc2nc3cccc(-c4ccc(C(=O)N5CCOCC5)cc4)c3o2)cc(OC)c1OC [Example 141, Morpholin-4-yl-{4-[2-(3,4,5-trimethoxy-phenylamino)-benzooxazol-7-yl]-phenyl}-methanone] | 0.22 | 0.0081 |
| CNS(=O)(=O)c1ccc(-c2cccc3nc(Nc4ccc(OC)c(OC)c4)oc23)cc1 [Example 59, 4-[2-(3,4-Dimethoxy-phenylamino)-benzooxazol-7-yl]-N-methyl-benzenesulfonamide] | 0.041 | – |
| COc1cc(Nc2nc3cccc(-c4ccc(S(N)(=O)=O)cc4)c3o2)cc(OC)c1 [Example 60, 4-[2-(3,5-Dimethoxy-phenylamino)-benzooxazol-7-yl]-benzenesulfonamide] | 0.16 | 0.17 |
| CNC(=O)c1cc(-c2cccc3nc(Nc4cc(OC)c(OC)c(OC)c4)oc23)cs1 [Example 34, 4-[2-(3,4,5-Trimethoxy-phenylamino)-benzooxazol-7-yl]-thiophene-2-carboxylic acid methylamide] | 0.54 | – |
| COc1cc(Nc2nc3cccc(-c4ccc(CC(=O)N5CCOCC5)cc4)c3o2)cc(OC)c1OC [Example 140, 1-Morpholin-4-yl-2-{4-[2-(3,4,5-trimethoxy-phenylamino)-benzooxazol-7-yl]-phenyl}-ethanone] | 0.14 | 0.0037 |
| COc1cc(Nc2nc3ccnc(-c4ccc(N)cc4)c3o2)cc(OC)c1OC [Example 36, [4-(4-Amino-phenyl)-oxazolo[5,4-c]pyridin-2-yl]-(3,4,5-trimethoxy-phenyl)-amine] | 0.12 | – |
| CNC(=O)Cc1ccc(-c2cccc3nc(Nc4cc(OC)c(OC)c(OC)c4)oc23)cc1 [Example 61, N-Methyl-2-{4-[2-(3,4,5-trimethoxy-phenylamino)-benzooxazol-7-yl]-phenyl}-acetamide] | 0.087 | – |

Now from value to compound:

| IC50 [1] [µM] | IC50 [2] [µM] | Compound |
| --- | --- | --- |
| 0.35 | – | COc1cc(Nc2nc3cccc(-c4ccc(N(C)C)cc4)c3o2)cc(OC)c1OC [Example 54, [7-(4-Dimethylamino-phenyl)-benzooxazol-2-yl]-(3,4,5-trimethoxy-phenyl)-amine] |
| 0.15 | – | COc1cc(Nc2nc3cccc(-c4ccc(Cl)c(N)c4)c3o2)cc(OC)c1OC [Example 52, [7-(3-Amino-4-chloro-phenyl)-benzooxazol-2-yl]-(3,4,5-trimethoxy-phenyl)-amine] |
| 0.93 | – | COc1cc(Nc2nc3cccc(-c4ccccc4C)c3o2)cc(OC)c1OC [Example 44, (7-o-Tolyl-benzooxazol-2-yl)-(3,4,5-trimethoxy-phenyl)-amine] |
| 0.12 | – | COc1cc(Nc2nc3cccc(-c4ccc5[nH]cnc5c4)c3o2)cc(OC)c1OC [Example 35, [7-(1H-Benzoimidazol-5-yl)-benzooxazol-2-yl]-(3,4,5-trimethoxy-phenyl)-amine] |
| 0.35 | – | COc1cc(Nc2nc3cccc(-c4ccccn4)c3o2)cc(OC)c1OC [Example 46, (7-Pyridin-2-yl-benzooxazol-2-yl)-(3,4,5-trimethoxy-phenyl)-amine] |
| 0.2 | – | COc1cc(Nc2nc3cccc(-c4ccc(NC(C)=O)cc4)c3o2)cc(OC)c1OC [Example 27, N-{4-[2-(3,4,5-Trimethoxy-phenylamino)-benzooxazol-7-yl]-phenyl}-acetamide] |
| 0.557 | – | COc1ccc(-c2cccc3nc(Nc4cc(OC)c(OC)c(OC)c4)oc23)cc1N [Example 53, [7-(3-Amino-4-methoxy-phenyl)-benzooxazol-2-yl]-(3,4,5-trimethoxy-phenyl)-amine] |
| 0.95 | – | COc1cc(Nc2nc3cccc(-c4cccc(C#N)c4)c3o2)cc(OC)c1OC [Example 45, 3-[2-(3,4,5-Trimethoxy-phenylamino)-benzooxazol-7-yl]-benzonitrile] |
| 0.45 | – | COc1ccc(-c2cccc3nc(Nc4cc(OC)c(OC)c(OC)c4)oc23)cc1[N+](=O)[O-] [Example 51, [7-(4-Methoxy-3-nitro-phenyl)-benzooxazol-2-yl]-(3,4,5-trimethoxy-phenyl)-amine] |
| 0.178 | – | COc1cc(Nc2nc3cccc(-c4cccc(O)c4)c3o2)cc(OC)c1OC [Example 6, [7-(3-Hydroxy-phenyl)-benzooxazol-2-yl]-(3,4,5-trimethoxy-phenyl)-amine] |
| 0.7 | – | COc1cc(Nc2nc3cccc(-c4cccc([N+](=O)[O-])c4)c3o2)cc(OC)c1OC [Example 48, [7-(3-Nitro-phenyl)-benzooxazol-2-yl]-(3,4,5-trimethoxy-phenyl)-amine] |
| 0.593 | – | COc1cc(Nc2nc3cccc(-c4cccc(C(N)=O)c4)c3o2)cc(OC)c1OC [Example 47, 3-[2-(3,4,5-Trimethoxy-phenylamino)-benzooxazol-7-yl]-benzamide] |
| 0.42 | – | COc1cc(Nc2nc3cccc(-c4cccc(NS(C)(=O)=O)c4)c3o2)cc(OC)c1OC [Example 55, N-{3-[2-(3,4,5-Trimethoxy-phenylamino)-benzooxazol-7-yl]-phenyl}-methanesulfonamide] |
| 0.61 | – | COc1cc(Nc2nc3cccc(-c4ccccc4N)c3o2)cc(OC)c1OC [Example 14, [7-(2-Amino-phenyl)-benzooxazol-2-yl]-(3,4,5-trimethoxy-phenyl)-amine] |
| 0.52 | – | COc1cc(Nc2nc3cccc(-c4cccc(S(C)(=O)=O)c4)c3o2)cc(OC)c1OC [Example 49, [7-(3-Methanesulfonyl-phenyl)-benzooxazol-2-yl]-(3,4,5-trimethoxy-phenyl)-amine] |
| 0.61 | – | CNS(=O)(=O)c1cccc(-c2cccc3nc(Nc4cc(OC)c(OC)c(OC)c4)oc23)c1 [Example 50, N-Methyl-3-[2-(3,4,5-trimethoxy-phenylamino)-benzooxazol-7-yl]-benzene-sulfonamide] |
